Reference: PubChem BioAssay (NCI)
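Method: 48-hour compound exposure of cells in 96-well plates, five concentrations, linear interpolation of endpoints. TGI marks complete inhibition of growth.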

Assays:
Assay in all cases: NCI-60 cell line screen, 48 h
A498 renal = test system: A498 renal
A549 NSCLC = test system: A549 NSCLC
CCRF-CEM leukemia = test system: CCRF-CEM leukemia
DU-145 prostate = test system: DU-145 prostate
HCT-15 colon = test system: HCT-15 colon
HOP-92 NSCLC = test system: HOP-92 NSCLC
IGROV1 ovarian = test system: IGROV1 ovarian
K-562 leukemia = test system: K-562 leukemia
MCF7 breast = test system: MCF7 breast
NCI-H23 lung = test system: NCI-H23 lung
OVCAR-4 ovarian = test system: OVCAR-4 ovarian
SF-539 CNS = test system: SF-539 CNS
SK-MEL-2 melanoma = test system: SK-MEL-2 melanoma
SK-OV-3 ovarian = test system: SK-OV-3 ovarian
SW-620 colon = test system: SW-620 colon
TK-10 renal = test system: TK-10 renal
U251 CNS = test system: U251 CNS
UACC-257 melanoma = test system: UACC-257 melanoma
UACC-62 melanoma = test system: UACC-62 melanoma
MDA-N = test system: MDA-N

Structure (SMILES)	TGI (A498 renal)	TGI (A549 NSCLC)	TGI (CCRF-CEM leukemia)	TGI (DU-145 prostate)	TGI (HCT-15 colon)	TGI (HOP-92 NSCLC)	TGI (IGROV1 ovarian)	TGI (K-562 leukemia)	TGI (MCF7 breast)	TGI (NCI-H23 lung)	TGI (OVCAR-4 ovarian)	TGI (SF-539 CNS)	TGI (SK-MEL-2 melanoma)	TGI (SK-OV-3 ovarian)	TGI (SW-620 colon)	TGI (TK-10 renal)	TGI (U251 CNS)	TGI (UACC-257 melanoma)	TGI (UACC-62 melanoma)	TGI (MDA-N)
COC(=O)c1c[nH]c2c1-c1cc(C(=O)OCc3ccccc3)n(S(=O)(=O)c3ccc(C)cc3)c1C(=O)C2=O	3.16 µM	1.97 µM	> 33.3 µM	0.287 µM	0.438 µM	1.29 µM	0.955 µM	> 100 µM	0.379 µM	0.32 µM	1.08 µM	0.471 µM	0.521 µM	3.1 µM	0.576 µM	4.1 µM	1.13 µM	0.311 µM	0.363 µM	
CCOC(=O)c1c(-c2ccc(Br)cc2)ccn1C	> 10 µM	> 10 µM	> 10 µM	> 10 µM	> 10 µM		> 10 µM	> 10 µM	> 10 µM	> 10 µM	> 10 µM	> 10 µM	> 10 µM	> 10 µM	> 10 µM	> 10 µM	> 10 µM	> 10 µM	> 10 µM	> 10 µM
O=C(CCCl)NNC1=NCCCCN1		> 100 µM	> 100 µM	> 100 µM	> 100 µM	> 100 µM	> 100 µM	> 100 µM	> 100 µM	> 100 µM	> 100 µM	> 100 µM	> 100 µM	> 100 µM	> 100 µM	> 100 µM	> 100 µM	> 100 µM	> 100 µM	> 100 µM
Oc1ccccc1C1=NOC(c2ccc(C(F)(F)F)cc2)C1 (stereo unspecified)	> 50 µM	> 50 µM	> 50 µM	> 50 µM	> 50 µM		> 33.3 µM	> 50 µM	> 50 µM	> 50 µM	> 50 µM	> 50 µM	> 50 µM	> 50 µM	> 50 µM	> 16.2 µM	> 50 µM	> 50 µM	> 50 µM	> 50 µM
COC1=CC(=O)c2c(c(COP(=O)(N(C)CCBr)N(C)CCBr)cn2C)C1=O	0.964 µM	0.659 µM	1.78 µM	1.06 µM	0.193 µM		3.93 µM		0.671 µM	2.06 µM	3 µM	0.0678 µM	0.315 µM	1.88 µM	0.317 µM	0.496 µM	0.448 µM	1.2 µM	0.272 µM	0.274 µM
O=[N+]([O-])C(=C1Nc2ccccc2N1)/C(Cl)=C(/Cl)N1CCOCC1	> 100 µM	> 100 µM	> 100 µM		> 100 µM			> 100 µM	> 100 µM	> 100 µM	61 µM	> 100 µM	> 100 µM	> 100 µM	> 100 µM		> 100 µM	> 100 µM	> 100 µM	> 100 µM
O=c1oc2ccc(Cl)cc2cc1-c1cn2ccccc2n1		> 89.3 µM	> 100 µM	> 100 µM	> 100 µM	> 73.3 µM	> 100 µM	> 100 µM	99.2 µM	46.8 µM	29.8 µM	> 100 µM	> 100 µM	6.52 µM	> 100 µM	35.3 µM	> 40.2 µM	> 100 µM	38.2 µM	> 100 µM
NC(=O)/C=c1/c2ccccc2n2nc3ccccc3c12	79.4 µM	> 100 µM	> 100 µM	> 100 µM	40.8 µM		35 µM	53.2 µM	> 100 µM	64.1 µM	39.4 µM	31.9 µM	57.1 µM	59.3 µM	44.5 µM	> 100 µM	29.3 µM	41 µM	37 µM	35.6 µM
C=C1C(=O)OC2CC(=C)C3CC=C(C)C3CC12 (stereo unspecified)	> 100 µM	> 100 µM	> 100 µM		36.7 µM	28.7 µM	55.5 µM	24.4 µM	55.3 µM		> 100 µM	> 100 µM	26.5 µM	80 µM	32.4 µM	34.4 µM	29.6 µM	27.5 µM	25.3 µM	30.6 µM
COc1ccc(N=Nc2c(C)c(C#N)c(=S)n(C3OC(CO)C(O)C(O)C3O)c2C)cc1 (stereo unspecified)		> 100 µM	89.2 µM	> 100 µM	> 100 µM	64.8 µM	> 100 µM	> 100 µM	> 100 µM	> 100 µM	> 100 µM	> 100 µM	> 100 µM	> 100 µM	> 100 µM	> 100 µM	> 100 µM	> 100 µM	> 100 µM	> 100 µM
Cc1ccc(N2CCN(CCC(=O)O)CC2)cc1	> 100 µM	> 100 µM	> 100 µM	> 100 µM	> 100 µM	> 100 µM	> 100 µM	> 100 µM	> 100 µM	> 100 µM	> 100 µM	> 100 µM	> 100 µM	> 100 µM	> 100 µM	> 100 µM	> 100 µM	> 100 µM	> 100 µM	
Clc1ccc(-c2ccc(-c3nnc(COc4ccc(OCc5nnc(-c6ccc(-c7ccc(Cl)cc7Cl)o6)o5)c(Cl)c4)o3)o2)c(Cl)c1	> 100 µM	> 100 µM	67.1 µM	> 100 µM	> 100 µM		> 100 µM	> 100 µM	> 100 µM	> 100 µM	> 100 µM		> 100 µM		> 100 µM	> 100 µM	> 100 µM	> 100 µM	> 100 µM	> 100 µM
